Source: patent US20110039825A1, “LIGANDS OF ALPHA-ADRENOCEPTORS, DOPAMINE, HISTAMINE, IMIDAZOLINE AND SEROTONIN RECEPTORS AND THEIR USE” (Alla Chem, LLC, priority 2007, published 2011)

Legend:
human 5-HT7 receptor = molecular target: T1, human 5-HT7 receptor (Homo sapiens, UniProt P34969); assay: radioligand binding to serotonin receptor 5-HT7 ([3H] Lysergic acid diethylamide)
T1 construct: expressed in transfected cells; host or cells: CHO
From the text: For this purpose sDNA of human 5-HT7 receptor is expressed in CHO cells as it was described in [Shen Y, Monsma F J Jr, Metcalf M A, Jose P A, Hamblin M W, and Sibley DR. […] J. Biol. Chem. 1993, 268, 18200-18204]. […] J. Pharmacol. Exp. Ther. 1994, 268:1403-1410]. […] Methiothepin is used as positive control.

recombinant human 5-HT1A = molecular target: T2, recombinant human 5-HT1A (Homo sapiens, UniProt P08908); assay: radioligand binding to serotonin receptor 5-HT1A ([3H] 8-OH-DPAT)
T2 construct: expressed in transfected cells; host or cells: CHO
T2 sequence (P08908 1-422): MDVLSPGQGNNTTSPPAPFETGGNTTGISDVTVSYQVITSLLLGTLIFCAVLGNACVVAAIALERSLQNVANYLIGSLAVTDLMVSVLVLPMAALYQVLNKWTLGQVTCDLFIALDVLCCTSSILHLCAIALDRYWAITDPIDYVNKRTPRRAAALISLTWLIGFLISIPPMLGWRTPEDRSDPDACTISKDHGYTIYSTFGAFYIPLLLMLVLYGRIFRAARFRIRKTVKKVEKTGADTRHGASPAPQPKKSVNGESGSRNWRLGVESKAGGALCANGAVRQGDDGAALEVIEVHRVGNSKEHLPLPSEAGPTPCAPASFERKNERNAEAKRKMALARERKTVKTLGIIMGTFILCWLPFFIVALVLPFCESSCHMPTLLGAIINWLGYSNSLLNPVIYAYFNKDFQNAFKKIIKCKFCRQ
From the text: J Pharmacol Exp Ther. 306(1): 301-309, 2003]. […] Metergoline is used as positive control.

mice = assay: Mice Training in Morris Water Maze (Scopolamine); format: in vivo; details: unitary introduction of active ingredient
Method: Mice Training in Morris Water Maze. A round pool which was filled with water at 20-22° C. was used. A round ceramic platform of 14 cm height was placed in the pool. Animals's behavior was registered with automated computer videosystem in combination with software package of movement analysis Any-maze (Stoelting Co., US). Before testing mice suitable for training were selected. That was done by placing the platform 1 cm above the water level and putting an animal on the platform for 20 seconds. Then the mouse was sunk into the water on the opposite side of the pool, allowed to find the platform and climbed it within 60 seconds, where it was left for additional 20 seconds. After that the mouse was repeatedly immersed into water on the opposite side of the pool and allowed to look for platform. If it failed in finding the platform within 60 seconds the experimentator helped it to find the platform and climb it. If the mice could not find the platform itself in two consecutive attempts it was excluded from experiment.
During the next two days the platform was placed 0.5 centimeter lower the water level. Every day the mice were given four attempts for finding the platform within 60 seconds. The time interval between the attempts was 20 seconds, during which the mice stayed on the platform. Every day before the first attempt mouse was placed on the platform for 20 seconds. The time needed for finding and climbing the platform was registered. The animals were sunk in water in 3 different places on the side of the pool opposite to platform. On each day of two-day testing 35-40 minutes before the beginning of training the mice were injected intraintestinally with physiological solution, Scopolamine or Scopolamine in combination with investigated compound. At least 8 animals were used in each group.
On the third day the platform was removed and each animal was placed one time in the pool for a period of 60 seconds. The time each mouse spent in the area where the platform had been located during the previous days was registered. This time interval was regarded as a measure of effectiveness of training fulfilled during the previous two days. The testing was carried out during the day time in isolated laboratory using “white noise” at level of about 70 decibel above the human hearing threshold.

T1 sequence (P34969 whole entry): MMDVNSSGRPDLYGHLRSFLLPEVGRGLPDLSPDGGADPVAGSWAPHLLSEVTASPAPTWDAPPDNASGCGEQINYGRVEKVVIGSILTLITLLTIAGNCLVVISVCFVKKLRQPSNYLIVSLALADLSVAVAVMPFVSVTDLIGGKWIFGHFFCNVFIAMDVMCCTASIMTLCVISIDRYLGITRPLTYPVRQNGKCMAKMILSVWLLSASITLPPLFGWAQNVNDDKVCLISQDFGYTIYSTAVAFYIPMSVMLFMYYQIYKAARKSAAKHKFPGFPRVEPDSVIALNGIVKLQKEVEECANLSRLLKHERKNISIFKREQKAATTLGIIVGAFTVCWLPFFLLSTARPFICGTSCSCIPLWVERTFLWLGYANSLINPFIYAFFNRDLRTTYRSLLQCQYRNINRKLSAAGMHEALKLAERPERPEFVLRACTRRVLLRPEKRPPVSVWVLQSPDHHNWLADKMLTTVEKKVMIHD

| SMILES | 5-HT7 % inhibition (human 5-HT7 receptor; 10 μM ligand) [%] | 5-HT1A % inhibition (recombinant human 5-HT1A; 10 μM ligand) [%] | memory disorders caused by Scopolamine in Morris water maze (mice) | inhibition at 1 µM (human 5-HT7 receptor; ligand concentration 1 μM) [%] | inhibition at 1 µM (recombinant human 5-HT1A; ligand concentration 1 μM) [%] |
| --- | --- | --- | --- | --- | --- |
| Cc1ccc2c(c1)[C@@H]1CN(C)CCC[C@@H]1N2CCc1ccc(C)nc1.Cl.Cl.Cl (relative stereo) [1.6.1(2)•3HCl] | 8 | −9 |  |  |  |
| Cc1ccc2c(c1)c1c(n2CCc2ccccn2)CCN(C)C1.Cl.Cl [1.1.2(2-3)•2HCl] |  |  | decreasing memory disorders coused by Scopalomine | 100 | 53 |
